Results: article PMC4960700, “In vivo and in vitro inhibition of rat liver glutathione transferases activity by extracts from Combretum zeyheri (Combretaceae) and Parinari curatellifolia (Chrysobalanaceae)” (BMC Complementary and Alternative Medicine, 2016)
In brackets after ≈: the same amount, converted by molar mass. Several values for one entry are separate records, joined by “and”; a condition that tells them apart may be missing. Equal values may be shown once.

Legend:
kidney GSTs = assay: In vitro GST enzyme assay (CDNB/GSH) with kidney cytosolic fractions of control rats; type: biochemical, male Sprague–Dawley rats; conditions: CDNB substrate
Method: (§1) Throughout the procedure tissue fractions were kept cold (0–4 °C) by using pre-cooled homogenization medium (50 mM Tris–HCl containing 0.154 M KCl) and keeping centrifuge rotors, tissue homogenizer, measuring cylinders, beakers and centrifuge tubes in ice. Excess blood was removed from the liver by perfusing the livers with ice cold normal saline using a Pharmacia LKB pump P-1 (Pharmacia, Uppsala, Sweden) at a flow rate of 50 ml/h through the still beating heart then gently blotting with dry tissue paper. Perfusion was performed in situ to remove blood. The livers and kidneys were removed and blotted dry. The liver or kidney samples were, weighed, wet mass recorded and livers quickly transferred to a homogenizing vessel, which was kept, on ice. Homogenizing medium 50 mM Tris–HCl pH 7.4 containing 154 mM KCl was added to each sample (5 ml/g of liver). The liver or kidney samples were cut into suitable pieces and homogenized with a motor driven Potter-Elvehjem homogenizer type R2R (Heidolph Elektro KG., Kelheim, Germany). […] The final volume was recorded and “parafilm ^TM” (Sigma-Aldrich Co., Steinheim, Germany) was added to cover. […] Protein content in the liver and kidney cytosolic fractions was determined using the Lowry method. The total GST activity in cell supernatants was measured spectrophotometrically using final concentrations of 1 mM 1-chloro-2,4-dinitrobenzene (CDNB) and 1 mM glutathione, as substrates in 0.1 M potassium phosphate buffer pH 6.5, and GST (0.125 mg/ml protein). Cytosolic glutathione transferases activities were assessed using 0.5 mg/ml and 2 mg/ml enzyme dilutions for the liver and kidney samples respectively. […] GST mediated conjugation of 1-chloro-2, 4- dinitrobenzene (CDNB) to glutathione (GSH) was measured using 96-well microtitre plates in a microplate reader (Biokinetics reader EL 340 microplate, Highland Park, 998, Winsooki, VT, USA). […] After addition of CDNB, the plate was transferred to the microplate reader. The plate was read at 5-min intervals for a total of 15 min.

rat liver GSTs = assay: In vitro GST enzyme assay (CDNB/GSH) with liver cytosolic fractions of control rats; type: biochemical, male Sprague–Dawley rats; conditions: CDNB substrate
Method: as §1

IC50 (kidney GSTs; kidney cytosol from corn oil-treated control group, P. curatellifolia experiments): 3.7 µg/mL (≈ 12.2 µM)
IC50 (kidney GSTs; kidney cytosol from normal saline treated control group, P. curatellifolia experiments): 7.36 µg/mL and 7.4 µg/mL
IC50 (kidney GSTs; kidney cytosol from saline-treated control group, C. zeyheri experiments): 10 µg/mL (≈ 33 µM)
IC50 (rat liver GSTs; liver cytosol from corn oil-treated control group, P. curatellifolia experiments): 10 µg/mL (≈ 33 µM)
IC50 (rat liver GSTs; liver cytosol from normal saline treated control group, P. curatellifolia experiments): 5.8 µg/mL and 6 µg/mL
IC50 (rat liver GSTs; liver cytosol from saline-treated control group, C. zeyheri experiments): 5.4 µg/mL (≈ 17.8 µM)
Structure (SMILES): C=C(CC)C(=O)c1ccc(OCC(=O)O)c(Cl)c1Cl [ETA, ethacrynic acid]
